These results are taken from patent US20250127778A1, “CANCER IMMUNOTHERAPY COMPOSITION CONTAINING INTERACTION INHIBITOR OF STING AND TRIM29 AS ACTIVE INGREDIENT” (SPARK BIOPHARMA, INC, priority 2021, published 2025).

The structures appear in SMILES notation.

Series [1] relates to STING subcytokines (IFN-β, IL-6, IL-15, IL-15Rα). The series can be described thus: qRT-PCR of STING subcytokine gene expression in Raw264.7 cells. The conditions noted are these: time-dependent and concentration-dependent, FIG. 6. In kind it is cell-based, mouse. How it is done:
In order to confirm whether the oxopiperazine derivatives of Formulas 1 to 6 increase the immune activation efficacy of the STING agonist cGAMP by increasing the amount of STING, the gene expression levels of the STING subcytokine interferon-beta (IFN-β), interleukin-6 (IL-6), interleukin-15 (IL-15), and interleukin-15 receptor alpha (IL-15Rα) were confirmed through quantitative real-time PCR (qRT-PCR) experiments.
Specifically, Raw264.7 cells were seeded in a transparent 12-well plate and cultured for one day. Thereafter, the cells were treated with cGAMP and the oxopiperazine derivatives of Formulas 1 to 6, respectively, and then cultured for six hours. Finally, after the supernatant culture medium of the cells was removed, the remaining supernatant was diluted with PBS (phosphate buffer saline) and removed to prepare qRT-PCR samples. mRNA was extracted from cells by using the RNeasy mini kit of QIAGEN according to the protocol of the manufacturer. After the concentration of RNA was measured by using Nanoview equipment of GE Healthcare, 1 μg RNA was quantified, and complementary DNA (cDNA) was synthesized by using the Accupower cyclescript RT premix dT20 (Bioneer) product according to the protocol of the manufacturer. […] The mixed samples were analyzed by using the StepOne Plus Real-Time PCR system (Applied Biosciences), and the results were plotted by using the Prism 8.0 program.

Series [2] concerns the target STING (Homo sapiens, UniProt Q86WV6). The series can be described thus: Western blotting of STING under co-treatment with MG132, actinomycin D or cycloheximide. In kind it is cell-based. The source says:
In addition, in order to cross-validate the results of the ELISA experiment, it was confirmed whether the STING increasing effect of the compound of Formula 1 was disappeared when ubiquitinated proteins were prevented from being degraded by treatment with MG132.
In addition, in order to exclude the possibility that the increase in STING expression by the compound of Formula 1 can occur through cellular mechanisms other than ubiquitin-mediated reactions, the transcription inhibitor actinomycin D (ActD) and the ribosome translation inhibitor cycloheximide (CHX) were co-treated with the compound of Formula 1, and whether the STING increase effect was still maintained was confirmed by using the Western blotting method.
(In general: A western blot detects proteins with antibodies after separation by electrophoresis.)

A further series concerns CD8+ T cells. The series can be described thus: T cell death analysis (Annexin V/7-AAD) of CD8+ T cells. The format is cell-based. The conditions noted are these: alone or in combination with cGAMP, 24 hours; FIG. 21. How it is done: CD8^+ T cells were obtained from the lymph nodes of C57BL/6 mice and separated by using MACS. CD8^+ T cells were activated on plates pre-coated with 1 μg/mL anti-CD3 and 0.5 μg/mL of anti-CD28 in the presence of 5 ng/ml of IL-2. After incubation for 24 hours in a 5% CO2 incubator at 37° C., activated CD8^+ T cells were treated with cGAMP and/or the compound of Formula 1 in various concentrations and incubated for additional 24 hours. The cells were harvested and stained with Annexin V/7-AAD to observe cell death. Data shown refer to at least three independent experiments.

Series [3] in a line: Body weight and toxicity signals in CT26 syngeneic mouse model. In kind it is in vivo. The conditions noted are these: treated individually or in combination, FIG. 24. Here is the method: 2×10^5 CT26 cell lines were prepared in 50 μL culture medium and subcutaneously injected. […] The cGAMP solution was manufactured with a final composition of PEG400:distilled water=40:60, and 20 μL was injected each time. The solution of the compound of Formula 1 was manufactured with the composition of DMSO:PEG400:distilled water=2:40:58, and 20 μL was injected each time. The cGAMP solution was injected once every two days, four times in total, and the solution of the compound of Formula 1 was injected once every four days, two times in total, starting with the second administration of cGAMP. The size of the tumor was measured by using calipers every two days, and the volume thereof was calculated as (length×width×height/2). The body weight of the mice was also measured every two days.

In series [4] the target is T1, STING (Mus musculus, UniProt Q3TBT3).
T1 sequence (Q3TBT3 1-378): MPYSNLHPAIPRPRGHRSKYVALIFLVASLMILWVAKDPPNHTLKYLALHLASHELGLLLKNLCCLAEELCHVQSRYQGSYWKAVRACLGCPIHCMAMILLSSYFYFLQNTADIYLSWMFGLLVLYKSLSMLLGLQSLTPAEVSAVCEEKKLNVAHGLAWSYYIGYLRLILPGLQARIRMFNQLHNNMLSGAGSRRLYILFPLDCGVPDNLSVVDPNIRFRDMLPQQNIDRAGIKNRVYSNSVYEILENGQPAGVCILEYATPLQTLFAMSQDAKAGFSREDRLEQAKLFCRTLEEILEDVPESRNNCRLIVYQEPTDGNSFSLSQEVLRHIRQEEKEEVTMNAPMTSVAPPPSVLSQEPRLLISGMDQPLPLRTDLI
The series can be described thus: Flow cytometry of intracellular STING in Raw264.7 cells. The format is cell-based. On the set-up: endogenous in cells; host or cells: Raw264.7. The conditions noted are these: 24 hours, FIG. 15. How it is done:
It was verified whether the oxopiperazine derivatives increased the efficacy of STING agonists and other cancer immunotherapy, including immune checkpoint inhibitors. First, it was verified through flow cytometry and Western blotting whether the oxopiperazine derivatives increase the amount of STING.
To measure the intracellular amount of STING through flow cytometry, Raw264.7 cells were seeded in a transparent 6-well plate and cultured for one day. Thereafter, the cells were treated with a solution, in which the compound of Formula 1 is diluted in a culture medium without FBS, and cultured for 24 hours. […] After centrifugation of the collected cells, the supernatant was removed, the cells were redistributed in FACS solution (Hank's balanced salt solution (HBSS) including 2% horse serum and 0.05% NaN3), and the number of cells was measured. […] Finally, the Triton solution was added, centrifugation was performed, the supernatant was removed, the cells were redistributed into 200 μL of the Triton solution and analyzed by using a FACSCalibur instrument from BD Bioscience, and the results were quantitatively analyzed by using the FlowJo program from Tree Star, Inc.
Background: A flow cytometer gives signals particle by particle.

Sequence of STING (Homo sapiens, UniProt Q86WV6) (Q86WV6 whole entry H232R, species assumed): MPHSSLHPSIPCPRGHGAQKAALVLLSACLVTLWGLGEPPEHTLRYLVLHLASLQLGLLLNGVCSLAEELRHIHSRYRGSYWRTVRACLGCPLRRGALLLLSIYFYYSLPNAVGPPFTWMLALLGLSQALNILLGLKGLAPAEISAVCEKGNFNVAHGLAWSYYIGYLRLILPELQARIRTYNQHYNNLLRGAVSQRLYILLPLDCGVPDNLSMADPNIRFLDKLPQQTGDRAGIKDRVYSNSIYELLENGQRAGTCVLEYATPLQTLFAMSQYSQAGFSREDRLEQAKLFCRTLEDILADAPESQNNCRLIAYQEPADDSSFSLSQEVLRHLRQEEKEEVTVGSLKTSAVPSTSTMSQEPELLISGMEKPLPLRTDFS

With `COc1ccc(CC2=CN(c3ccc(C(=O)NC[C@H]4CCCO4)cc3[N+](=O)[O-])[C@H](C(C)C)C(=O)N2Cc2ccc(O)cc2)cc1` [Formula 1, 4-((R)-4-(4-hydroxybenzyl)-2-isopropyl-5-(4-methoxybenzyl)-3-oxo-3,4-dihydropyrazin-1 (2H)-yl)-3-nitro-N-(((R)-tetrahydrofuran-2-yl)methyl)benzamide], the “expression of IL-15 and IL-15Rα” value in series [1] is “increased”. Also, the “intracellular amount of STING under transcription and translation inhibition” value at STING [2] (co-treated with actinomycin D (ActD) and cycloheximide (CHX), Western blotting, FIG. 10) is “still increased the intracellular amount of STING”. In addition, on STING [2] (co-treated with proteasome inhibitor MG132, Western blotting, FIG. 9), the “STING amount under MG132 treatment” value was “STING was not increased”. For the same molecule, in the series on CD8+ T cells, the “death of cytotoxic T cells” value was “did not induce or promote the death of cytotoxic T cells”. In series [3], the “body weight change or signal of toxicity” value is “significant change in body weight or signal of toxicity was not observed”. On STING [4], the “fluorescence labeling intensity of intracellular STING” value is reported as “increased in a concentration-dependent manner”.
